The target in assay [1] is T1, prostaglandin cyclooxygenase (Bos taurus, UniProt O62664).
T1 construct: from tissue; host or cells: bovine seminal vesicles (microsomes)
T1 sequence (O62664 25-600): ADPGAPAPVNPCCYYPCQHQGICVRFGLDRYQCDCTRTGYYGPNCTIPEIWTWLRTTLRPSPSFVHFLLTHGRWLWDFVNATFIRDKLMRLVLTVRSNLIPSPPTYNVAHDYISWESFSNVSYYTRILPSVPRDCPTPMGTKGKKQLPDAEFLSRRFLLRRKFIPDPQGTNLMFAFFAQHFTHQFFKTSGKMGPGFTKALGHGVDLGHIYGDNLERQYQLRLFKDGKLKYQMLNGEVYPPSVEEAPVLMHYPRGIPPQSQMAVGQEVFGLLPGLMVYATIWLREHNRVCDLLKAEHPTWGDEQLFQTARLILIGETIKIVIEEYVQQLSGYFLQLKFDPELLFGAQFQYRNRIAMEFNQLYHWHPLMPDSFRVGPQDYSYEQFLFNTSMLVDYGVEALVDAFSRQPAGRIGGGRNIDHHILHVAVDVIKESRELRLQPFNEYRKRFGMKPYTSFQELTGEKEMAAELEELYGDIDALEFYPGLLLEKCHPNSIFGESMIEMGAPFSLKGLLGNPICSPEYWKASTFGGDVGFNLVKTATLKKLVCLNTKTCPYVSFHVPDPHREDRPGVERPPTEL
As to the kind of experiment: in-vitro effect on prostaglandin cyclooxygenase. It counts as biochemical. Conditions: read-out: IC50 for cyclooxygenase inhibition. How it is done: The in-vitro effect on prostaglandin cyclooxygenase is measured by a modification of the method of Takeguchi et al. described in Biochemistry 10, 2372 (1971); the testing procedure is described in U.S. Pat. No. 4,460,777.

Assay [2] concerns the target T2, thromboxane synthetase (Homo sapiens, UniProt P24557).
T2 construct: from tissue; host or cells: human platelets (microsomes)
T2 sequence (P24557 1-533): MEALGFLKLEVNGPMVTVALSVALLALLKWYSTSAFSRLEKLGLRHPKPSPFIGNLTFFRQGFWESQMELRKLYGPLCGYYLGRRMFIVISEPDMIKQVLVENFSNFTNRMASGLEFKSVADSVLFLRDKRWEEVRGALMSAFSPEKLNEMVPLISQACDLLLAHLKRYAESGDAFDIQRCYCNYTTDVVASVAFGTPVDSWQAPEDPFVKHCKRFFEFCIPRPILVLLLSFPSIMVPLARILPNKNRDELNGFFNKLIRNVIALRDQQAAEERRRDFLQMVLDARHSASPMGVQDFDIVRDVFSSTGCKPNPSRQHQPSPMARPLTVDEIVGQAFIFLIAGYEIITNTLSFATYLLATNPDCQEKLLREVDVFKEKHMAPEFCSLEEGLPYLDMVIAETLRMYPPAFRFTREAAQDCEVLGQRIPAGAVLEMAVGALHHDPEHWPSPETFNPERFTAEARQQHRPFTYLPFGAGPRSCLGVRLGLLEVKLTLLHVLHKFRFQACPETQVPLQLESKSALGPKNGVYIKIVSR
As to the kind of experiment: in vitro inhibition of the thromboxane synthetase enzyme. It counts as biochemical. The source says:
Res. Comm. 74, 1432 (1977). The testing procedure is essentially carried out as described in U.S. Pat. No. 4,460,777.

By IC50 is commonly meant the point on the concentration scale where inhibition reaches its midpoint.

For the compound `O=C(O)CCCCc1cn(-c2cccnc2)c2ccccc12` [3-(4-carboxybutyl)-N-(3-pyridyl)indole, 3-(4-carboxybutyl)-N-(3-pyridyl)-indole], the IC50 in assay [1] was above 1000 µM.
The compound `O=C(O)CCCC(=O)c1cn(-c2cccnc2)c2ccccc12` [Example 2, 3-(1-oxo-4-carboxybutyl)-N-(3-pyridyl)-indole] gave an IC50 in assay [2] of around 0.4 µM.
